Measurements published in US20100324124A1, “Compositions and methods relating to DNA-based particles” (Massachusetts Institute of Technology, priority 2009, published 2010).

System: B16F10 melanoma tumors
Assay: In vivo treatment of established B16F10 melanoma tumors, single intratumoral injection
Conditions: 100 μg DOX, C57B1/6 mice
Protocol: FIG. 7 illustrates in vivo tumor regression mediated by doxobucin-loaded nanoparticles. 5×10^6 Gaussia-luciferase-expressing B16F10 melanoma cells were subcutaneously injected into left flank of C57B1/6 mice. Tumors were allowed to establish and grow to ˜0.5 cm in diameter, and mice were divided randomly into groups of 8 per condition: group 1, no treatment (PBS); group 2, treated with free doxorubicin (100 μg DOX); group 3, treated with doxorubicin-imbedded liposome (100 μg DOX); and group 4, treated with doxorubicin-imbedded nucleic acid nanoparticle (100 μg DOX). Treatments were administered by intratumoral injection in 250 μl volumes. Tumors were measured every day with calipers in two dimensions. Tumor growth curves are plotted as the mean tumor area±standard deviation. Shown at bottom left is bioluminescence imaging of a mouse with an untreated tumor (left) and a mouse that received an injection of doxorubicin-imbedded nucleic acid nanoparticles (right). Animals were sacrificed after the last measurement and the tumors were excised and fixed for histology section. […]

COc1cccc2c1C(=O)c1c(O)c3c(c(O)c1C2=O)C[C@@](O)(C(=O)CO)C[C@@H]3O[C@H]1C[C@H](N)[C@H](O)[C@H](C)O1 [free doxorubicin, Doxorubicin]
effect on tumor growth relative to saline-injected control animals: no effect on tumor growth
